Test results published in patent publication US20230118795A1, “ARYL OR HETEROARYL PYRIDONE OR PYRIMIDINE DERIVATIVE, PREPARATION METHOD AND USE THEREOF” (SUZHOU ZELGEN BIOPHARMACEUTICALS CO., LTD., priority 2020, published 2023).

These molecules were tested on NCI-H358 (KRAS^G12C mutation) cell (assay: Cell assay of antiproliferative activity against NCI-H358 cell (Celltiter-Glo, 5 days)). Conditions: 5 days incubation.
Format: cell-based
Procedure: Cell Assay of Antiproliferative Activity of Compounds Against NCI-H358 (KRAS^G12C Mutation) Cell.
40 μL phosphate buffer was added to the outer wells of the 384 microplate, and 40 μL cell suspension to be tested was added to the other wells. Then the microplate was incubated in a carbon dioxide incubator overnight.
The compounds to be tested were gradiently diluted, each compound was performed 10 concentration gradients (diluted from 50 μM to 0.003 μM) and added 100 nL to the corresponding wells in the microplate. After addition, 40 μl of phosphate buffer was added to each well in rows A and P and columns 1 and 24, and then the microplate was incubated in a carbon dioxide incubator for 5 days.
20 μL of Promega Celltiter-Glo reagent was added to each well of the microplate, and then the luminescence signal was stabilized by oscillating at room temperature for 10 min. Then PekinElmer Envision multi-label analyzer was used to read.
Finally, GraphPad Prism software was used to calculate the IC50 value of the compound and the fitting curve was drawn.
Anti-proliferative activity of the compounds of the present invention against NCI-H358 (KRAS^G12C mutation) cell was shown in Table 1.

SMILES | IC50 [nM]
C=CC(=O)N1C[C@H](C)N(c2nc(=O)n(-c3c(CC)cccc3S(=O)(=O)C(C)C)c3nc(-c4c(O)cccc4F)c(F)cc23)C[C@H]1C (single isomer, unassigned) [Example 82B] | 50
C=CC(=O)N1CCN(c2nc(=O)n(-c3c(S(C)(=O)=O)ccnc3C(C)C)c3nc(-c4c(O)cccc4F)c(F)cc23)[C@@H](C)C1 [Example 18, 4-((S)-4-acryloyl-2-methylpiperazin-1-yl)-6-fluoro-7-(2-fluoro-6-hydroxyphenyl)-1-(2-isopropyl-4-(methylsulfonyl)pyridin-3-yl)pyridino[2,3-d]pyrimidin-2 (1H)-one] | 30
C=CC(=O)N1CCN(c2nc(=O)n(-c3c(C4CCC4)cccc3S(C)(=O)=O)c3nc(-c4c(O)cccc4F)c(F)cc23)[C@@H](C)C1 (single isomer, unassigned) [Example 25B] | 6
C=CC(=O)N1CCN(c2nc(=O)n(-c3c(C4CCC4)cccc3S(C)(=O)=O)c3nc(-c4c(O)cccc4F)c(F)cc23)[C@@H](C)C1 [Example 25, 4-((S)-4-acryloyl-2-methylpiperazin-1-yl)-1-(2-cyclobutyl-6-(methylsulfonyl)phenyl)-6-fluoro-7-(2-fluoro-6-hydroxyphenyl) pyridino[2,3-d]pyrimidin-2(1H)-one] | 9
C=CC(=O)N1CCN(c2nc(=O)n(-c3c(C(C)C)cccc3S(C)(=O)=O)c3nc(-c4c(Cl)ccc5cn[nH]c45)c(F)cc23)[C@@H](C)C1 [Example 75] | > 10000
C=CC(=O)N1CCN(c2nc(=O)n(-c3c(C(C)C)ccnc3S(C)(=O)=O)c3nc(-c4c(O)cccc4F)c(F)cc23)[C@@H](C)C1 (single isomer, unassigned) [Example 16A] | 720
C=CC(=O)N1CCN(c2nc(=O)n(-c3c(C(C)C)ccnc3S(C)(=O)=O)c3nc(-c4ccccc4Cl)c(F)cc23)[C@@H](C)C1 (single isomer, unassigned) [Example 20B] | 13
C=CC(=O)N1CCN(c2nc(=O)n(-c3c(C)cccc3S(C)(=O)=O)c3nc(-c4c(O)cccc4F)c(F)cc23)[C@@H](C)C1 (single isomer, unassigned) [Example 87B] | < 100
C=CC(=O)N1CCN(c2nc(=O)n(-c3c(C(C)C)cccc3S(C)(=O)=O)c3nc(-c4c(O)cccc4F)c(F)cc23)[C@@H](C)C1 (single isomer, unassigned) [Example 10A] | 280
C=CC(=O)N1CCN(c2nc(=O)n(-c3c(C)cccc3S(C)(=O)=O)c3nc(-c4c(O)cccc4F)c(F)cc23)CC1CC#N (stereo not drawn) [Example 57, 2-(1-acryloyl-4-(6-fluoro-7-(2-fluoro-6-hydroxyphenyl)-1-(2-methyl-6-(methylsulfonyl)phenyl)-2-oxo-1,2-dihydropyridino [2,3-d]pyrimidin-4-yl)piperazin-2-yl) acetonitrile] | 10000
C=CC(=O)N1CCN(c2nc(=O)n(-c3c(CC)cccc3S(C)(=O)=O)c3nc(-c4c(O)cccc4F)c(F)cc23)[C@@H](C)C1 [Example 5, 4-((S)-4-acrylo-2-methylpiperazin-1-yl)-1-(2-ethyl-6-(methylsulfonyl)phenyl)-6-fluoro-7-(2-fluoro-6-hydroxyphenyl) pyridino[2,3-d] pyrimidin-2(1H)-one] | 28

Same assay, conditions: Homo sapiens, NCI-H358, 120 h, 5 days incubation

SMILES | IC50 [nM]
C=CC(=O)N1CCN(c2nc(=O)n(-c3c(C(C)C)cccc3S(C)(=O)=O)c3nc(-c4cncn4C)c(F)cc23)[C@@H](C)C1 [Example 70, (S)-4-(4-acryloyl-2-methylpiperazin-1-yl)-6-fluoro-1-(2-isopropyl-6-(methylsulfonyl)phenyl)-7-(1-methyl-1H-imidazol-5-yl) pyridino [2,3-d] pyrimidin-2 (1H)-one] | > 10000
C=CC(=O)N1CCN(c2nc(=O)n(-c3c(C)cccc3S(=O)(=O)C3CC3)c3nc(-c4c(O)cccc4F)c(F)cc23)[C@@H](C)C1 [Example 7, 4-((S)-4-acryloyl-2-methylpiperazin-1-yl)-1-(2-(cyclopropylsulfonyl)-6-methylphenyl)-6-fluoro-7-(2-fluoro-6-hydroxyphenyl) pyridino [2,3-d] pyrimidin-2(1H)-one] | 240
C=CC(=O)N1CCN(c2nc(=O)n(-c3c(C4CC4)cccc3S(C)(=O)=O)c3nc(-c4ccccc4Cl)c(F)cc23)[C@@H](C)C1 [Example 17, (S)-4-(4-acryloyl-2-methylpiperazin-1-yl)-7-(2-chlorophenyl)-1-(2-cyclopropyl-6-(methylsulfonyl)phenyl)-6-fluoropyridino [2,3-d] pyrimidin-2(1H)-one] | 31
C=CC(=O)N1CCN(c2nc(=O)n(-c3c(C)cccc3S(C)(=O)=O)c3nc(-c4c(F)cccc4C(F)F)c(F)cc23)[C@@H](C)C1 [Example 9, 4-((S)-4-acryloyl-2-methylpiperazin-1-yl)-7-(2-(difluoromethyl)-6-fluorophenyl)-6-fluoro-1-(2-methyl-6-(methylsulfonyl)phenyl) pyridino [2,3-d] pyrimidin-2 (1H)-one] | 230
C=CC(=O)N1C[C@H](C)N(c2nc(=O)n(-c3c(C(C)C)cccc3S(C)(=O)=O)c3nc(-c4c(O)cccc4F)c(F)cc23)C[C@H]1C [Example 78A] | 170
C=CC(=O)N1CCN(c2nc(=O)n(-c3c(C)cccc3S(C)(=O)=O)c3nc(-c4c(O)cccc4F)c(F)cc23)[C@@H](CC#N)C1 [Example 3, 2-((2S)-4-acryloyl-1-(6-fluoro-7-(2-fluoro-6-hydroxyphenyl)-1-(2-methyl-6-(methylsulfonyl)phenyl)-2-oxo-1,2-dihydropyridino[2,3-d]pyrimidin-4-yl)piperazin-2-yl) acetonitrile] | 870
C=CC(=O)N1CCN(c2nc(=O)n(-c3ccccc3S(C)(=O)=O)c3nc(-c4c(O)cccc4F)c(F)cc23)[C@@H](C)C1 [Example 85, 4-((S)-4-acryloyl-2-methylpiperazin-1-yl)-6-fluoro-7-(2-fluoro-6-hydroxyphenyl)-1-(2-(methylsulfonyl)phenyl) pyridino[2,3-d] pyrimidin-2(1H)-one] | < 1000
C=CC(=O)N1CCN(c2nc(=O)n(-c3c(C(C)C)cccc3S(C)(=O)=O)c3nc(-c4cccc(=O)n4C)c(F)cc23)[C@@H](C)C1 [Example 74, (S)-4-(4-acryloyl-2-methylpiperazin-1-yl)-6-fluoro-1-(2-isopropyl-6-(methylsulfonyl)phenyl)-7-(1-methyl-6-oxo-1,6-dihydropyridin-2-yl) pyridino[2,3-d] pyrimidin-2 (1H)-one] | > 10000
C=CC(=O)N1CCN(c2nc(=O)n(-c3c(C(C)C)cccc3S(C)(=O)=O)c3nc(-c4c(O)cccc4F)c(F)cc23)[C@@H](C)C1 [Example 10, 4-((S)-4-acryloyl-2-methylpiperazin-1-yl)-6-fluoro-7-(2-fluoro-6-hydroxyphenyl)-1-(2-isopropyl-6-(methylsulfonyl)phenyl) pyridino[2,3-d] pyrimidin-2(1H)-one] | 10
C=CC(=O)N1CCN(c2nc(=O)n(-c3c(C(C)C)cccc3S(C)(=O)=O)c3nc(-c4cccn(C)c4=O)c(F)cc23)[C@@H](C)C1 [Example 73, (S)-4-(4-acryloyl-2-methylpiperazin-1-yl)-6-fluoro-1-(2-isopropyl-6-(methylsulfonyl)phenyl)-7-(1-methyl-2-oxo-1,2-dihydropyridin-3-yl) pyridino[2,3-d] pyrimidin-2 (1H)-one] | > 10000
C=CC(=O)N1CCN(c2nc(=O)n(-c3c(C)cccc3S(C)(=O)=O)c3nc(-c4c(O)cccc4F)c(F)cc23)[C@@H](C)C1 [Example 87, 4-((S)-4-acryloyl-2-methylpiperazin-1-yl)-6-fluoro-7-(2-fluoro-6-hydroxyphenyl)-1-(2-methyl-6-(methylsulfonyl)phenyl) pyridino[2,3-d] pyrimidin-2(1H)-one] | < 100
C=CC(=O)N1CCN(c2nc(=O)n(-c3c(C(C)C)ccnc3S(C)(=O)=O)c3nc(-c4c(O)cccc4F)c(F)cc23)[C@@H](C)C1 [Example 16, 4-((S)-4-acryloyl-2-methylpiperazin-1-yl)-6-fluoro-7-(2-fluoro-6-hydroxyphenyl)-1-(4-isopropyl-2-(methylsulfonyl)pyridin-3-yl) pyridino [2,3-d] pyrimidin-2 (1H)-one] | 12
C=CC(=O)N1CCN(c2nc(=O)n(-c3c(S(C)(=O)=O)ccnc3C)c3nc(-c4c(O)cccc4F)c(F)cc23)[C@@H](C)C1 [Example 2, 4-((S)-4-acryloyl-2-methylpiperazin-1-yl)-6-fluoro-7-(2-fluoro-6-hydroxyphenyl)-1-(2-methyl-4-(methylsulfonyl)pyridin-3-yl) pyridino [2,3-d] pyrimidin-2 (1H)-one] | 540
C=CC(=O)N1CCN(c2nc(=O)n(-c3c(C(C)C)ccnc3S(C)(=O)=O)c3nc(-c4c(F)cccc4OC)c(F)cc23)[C@@H](C)C1 [Example 19, 4-((S)-4-acryloyl-2-methylpiperazin-1-yl)-6-fluoro-7-(2-fluoro-6-methoxyphenyl)-1-(4-isopropyl-2-(methylsulfonyl)pyridin-3-yl) pyridino[2,3-d]pyrimidin-2(1H)-one] | 48
C=CC(=O)N1CCN(c2nc(=O)n(-c3c(C(C)C)cccc3S(C)(=O)=O)c3nc(-c4cccc(=O)[nH]4)c(F)cc23)[C@@H](C)C1 [Example 72, (S)-4-(4-acryloyl-2-methylpiperazin-1-yl)-6-fluoro-1-(2-isopropyl-6-(methylsulfonyl)phenyl)-7-(6-oxo-1,6-dihydropyridin-2-yl) pyridino[2,3-d] pyrimidin-2 (1H)-one] | > 10000
C=CC(=O)N1CCN(c2nc(=O)n(-c3c(C(C)C)cncc3S(C)(=O)=O)c3nc(-c4c(O)cccc4F)c(F)cc23)[C@@H](C)C1 [Example 29] | 53
